The subject of experiment [1] is MDR tumor cells. Description: MDR activity: synergy with vinblastine, colorimetric MTT assay. In kind it is cell-based. The following applies: for EC50: concentration required to lower the IC50 of vinblastine by 50% when both added together, 72 hr, MTT, read-out: MDR Activity ED50; for Activity Index: ratio of toxicity (IC50) and MDR activity (ED50), 4320 min. As to the method: (§1) A colorimetric assay is employed to determine the synergy between test compounds of the invention and vinblastine or adriamycin against the growth of MDR tumor cells. The assay is based on the ability of live tumor cells to reduce a tetrazoline compound, MTT (3-(4,5-dimethyl)[…])-2,5-diphenyl tetrazolium bromide, to a blue formazan product. Both the test compound and cytotoxic drug (vinblastine or adriamycin) were added to the cells growing in wells of a 96-well plate at different combinations of concentration. The cells were allowed to grow for 72 hr and, at the end of incubation, stained with MTT for 3 hr. The blue formazan product which developed, was dissolved with DMSO and the color intensity was recorded in a spectrophotometer. Based on the data, an isobologram analysis was performed. MDR activity (ED50 : μM) represents the concentration of the compound required to lower the IC50 value of vinblastine by 50% when both the compounds were added to the medium together. Cellular toxicity (IC50 : μM) represents concentration of the compound that inhibit cell growth by 50%. Activity index is the ratio of toxicity and MDR activity.

Experiment [2] relates to MDR tumor cells. Description: Cellular toxicity: inhibition of cell growth, colorimetric MTT assay. In kind it is cell-based. As to conditions: concentration that inhibits cell growth by 50%, 72 hr. As to the method:
as §1
A general note: Tetrazolium assays rely on reduction of a dye to a coloured formazan, in cell work by metabolically active cells.

We go through five compounds from patent US5648365A, “Diarylalkyl piperidines useful as multi-drug resistant tumor agents” (Merrell Pharmaceuticals Inc., priority 1996, dated 1997).

Turning to `O=C(Cc1ccc2c(c1)OCO2)N1CCCCC1CC(c1ccccc1)c1ccccc1` (stereo not drawn) [Example 3, 2-Benzo[1,3]Dioxol-5-yl-1-[2-(2,2-Diphenylethyl)-Piperidin-1-yl]-Ethanone], in the experiment on MDR tumor cells [1], the EC50 was determined as 1.2 µM and the “Activity Index” value was 32.5. Besides, in the experiment on MDR tumor cells [2], the 50% inhibitory concentration (IC50) (as a rule, the concentration at which inhibition is half-maximal) came to 39 µM.

Turning to `COc1cc(CC(=O)N2CCCCC2CC(c2ccccc2)c2ccccc2)cc(OC)c1OC` (stereo not drawn) [Example 1, 1-[2-(2,2-Diphenyl-Ethyl)-Piperidin-1-yl]-2-(3,4,5-Trimethoxy-Phenyl)-Ethanone], in the experiment with MDR tumor cells [1], the EC50 was found to be 0.31 µM and the “Activity Index” value was determined as 109.0. In the experiment on MDR tumor cells [2], the IC50 was found to be 33.8 µM.

As to `COc1ccc(CCC(=O)N2CCCCC2CC(c2ccccc2)c2ccccc2)cc1OC` (stereo not drawn) [Example 6, 3-(3,4-Dimethoxy-Phenyl)-1-[2-(2,2-Diphenylethyl)-Piperidin-1-yl]-Propan-1-one], in the experiment on MDR tumor cells [1], the EC50 was 0.46 µM and the “Activity Index” value is reported as 47.0. The half-maximal inhibitory concentration (IC50) in the experiment with MDR tumor cells [2] stood at 21.6 µM.

As to `COc1cc(CC(=O)N2CCCCC2C(c2ccccc2)c2ccccc2)cc(OC)c1OC` (stereo not drawn) [Example 9], in the experiment with MDR tumor cells [1], the EC50 came out at 0.7 µM and the “Activity Index” value was 43.5. For the same compound, in the experiment on MDR tumor cells [2], the IC50 was 30.3 µM.

In the case of `COc1ccccc1CC(=O)N1CCCCC1CC(c1ccccc1)c1ccccc1` (stereo not drawn) [Example 2, 1-[2-(2,2-Diphenyl-Ethyl)-Piperidin-1-yl]-2(2-Methoxy-Phenyl)-Ethanone], in the experiment on MDR tumor cells [1], the EC50 turned out to be 1.16 µM and the “Activity Index” value is 32.0. The IC50 in the experiment on MDR tumor cells [2] was determined as 37.5 µM.
